≈ marks a conversion by molar mass, not a printed value.
test system: Staphylococcus epidermidis; assay: Antibacterial activity against Staphylococcus epidermidis ATCC 35984 by broth micro-dilution method; type: functional; conditions: RP62A

SMILES	MIC [µM]
CCc1ccccc1/N=C1\S/C(=C\c2ccc(OCC(=O)O)c(OC)c2)C(=O)N1c1ccccc1CC	25 (≈ 12.9 µg/mL)
O=C(O)c1cccc(-c2ccc(/C=C3\S/C(=N\c4ccc(F)cc4)N(c4ccc(F)cc4)C3=O)s2)c1	6.25 (≈ 3.24 µg/mL)
O=C(O)c1cccc(-c2ccc(/C=C3\S/C(=N\c4ccc(Cl)cc4)N(c4ccc(Cl)cc4)C3=O)s2)c1	12.5 (≈ 6.89 µg/mL)
O=C(O)c1cccc(-c2ccc(/C=C3\S/C(=N\c4ccc(Cl)cc4)N(c4ncccc4F)C3=O)o2)c1	12.5 (≈ 6.5 µg/mL)
O=C(O)c1cccc(-c2ccc(/C=C3\S/C(=N\c4ccc(Cl)cc4)N(c4ccccn4)C3=O)o2)c1	6.25 (≈ 3.14 µg/mL)
O=C(O)c1cccc(-c2ccc(/C=C3\S/C(=N\c4ccc(F)cc4)N(c4ccccn4)C3=O)o2)c1	12.5 (≈ 6.07 µg/mL)
O=C(O)c1cccc(-c2ccc(/C=C3\S/C(=N\c4ccccc4)N(c4ccc(Cl)cc4)C3=O)o2)c1	6.25 (≈ 3.13 µg/mL)
O=C(O)c1cccc(-c2ccc(/C=C3\S/C(=N\c4ccccc4)N(c4cccc(F)n4)C3=O)o2)c1	6.25 (≈ 3.03 µg/mL)
O=C(O)c1cccc(-c2ccc(/C=C3\S/C(=N\c4ccccc4)N(c4ccc(F)cn4)C3=O)o2)c1	12.5 (≈ 6.07 µg/mL)
O=C(O)c1cccc(-c2ccc(/C=C3\S/C(=N\c4ccccc4)N(c4ccc(F)cc4)C3=O)s2)c1	6.25 (≈ 3.13 µg/mL)
O=C(O)c1cccc(-c2ccc(/C=C3\S/C(=N\c4ccccc4)N(c4ccc(F)cn4)C3=O)s2)c1	3.13 (≈ 1.57 µg/mL)

test system: Staphylococcus aureus; assay: Antibacterial activity against methicillin-resistant Staphylococcus aureus 8282 by broth micro-dilution method; type: functional; conditions: not given

SMILES	MIC [µM]
CCc1ccccc1/N=C1\S/C(=C\c2ccc(OCC(=O)O)c(OC)c2)C(=O)N1c1ccccc1CC	25 (≈ 12.9 µg/mL)
O=C(O)c1cccc(-c2ccc(/C=C3\S/C(=N\c4ccc(F)cc4)N(c4ccc(F)cc4)C3=O)s2)c1	6.25 (≈ 3.24 µg/mL)
O=C(O)c1cccc(-c2ccc(/C=C3\S/C(=N\c4ccc(Cl)cc4)N(c4ccc(Cl)cc4)C3=O)s2)c1	25 (≈ 13.8 µg/mL)
O=C(O)c1cccc(-c2ccc(/C=C3\S/C(=N\c4ccc(Cl)cc4)N(c4ncccc4F)C3=O)o2)c1	12.5 (≈ 6.5 µg/mL)
O=C(O)c1cccc(-c2ccc(/C=C3\S/C(=N\c4ccc(Cl)cc4)N(c4ccccn4)C3=O)o2)c1	6.25 (≈ 3.14 µg/mL)
O=C(O)c1cccc(-c2ccc(/C=C3\S/C(=N\c4ccc(F)cc4)N(c4ccccn4)C3=O)o2)c1	12.5 (≈ 6.07 µg/mL)
O=C(O)c1cccc(-c2ccc(/C=C3\S/C(=N\c4ccccc4)N(c4ccc(Cl)cc4)C3=O)o2)c1	6.25 (≈ 3.13 µg/mL)
O=C(O)c1cccc(-c2ccc(/C=C3\S/C(=N\c4ccccc4)N(c4cccc(F)n4)C3=O)o2)c1	6.25 (≈ 3.03 µg/mL)
O=C(O)c1cccc(-c2ccc(/C=C3\S/C(=N\c4ccccc4)N(c4ccc(F)cn4)C3=O)o2)c1	12.5 (≈ 6.07 µg/mL)
O=C(O)c1cccc(-c2ccc(/C=C3\S/C(=N\c4ccccc4)N(c4ccc(F)cc4)C3=O)s2)c1	12.5 (≈ 6.26 µg/mL)
O=C(O)c1cccc(-c2ccc(/C=C3\S/C(=N\c4ccccc4)N(c4ccc(F)cn4)C3=O)s2)c1	3.13 (≈ 1.57 µg/mL)

test system: Staphylococcus epidermidis; assay: Bactericidal activity against Staphylococcus epidermidis ATCC 35984; type: functional; conditions: RP62A

SMILES	MBC [µM]
CCc1ccccc1/N=C1\S/C(=C\c2ccc(OCC(=O)O)c(OC)c2)C(=O)N1c1ccccc1CC	100 (≈ 51.7 µg/mL)
O=C(O)c1cccc(-c2ccc(/C=C3\S/C(=N\c4ccc(F)cc4)N(c4ccc(F)cc4)C3=O)s2)c1	100 (≈ 51.9 µg/mL)
O=C(O)c1cccc(-c2ccc(/C=C3\S/C(=N\c4ccc(Cl)cc4)N(c4ccc(Cl)cc4)C3=O)s2)c1	> 200
O=C(O)c1cccc(-c2ccc(/C=C3\S/C(=N\c4ccc(Cl)cc4)N(c4ncccc4F)C3=O)o2)c1	> 200
O=C(O)c1cccc(-c2ccc(/C=C3\S/C(=N\c4ccc(Cl)cc4)N(c4ccccn4)C3=O)o2)c1	50 (≈ 25.1 µg/mL)
O=C(O)c1cccc(-c2ccc(/C=C3\S/C(=N\c4ccc(F)cc4)N(c4ccccn4)C3=O)o2)c1	> 200
O=C(O)c1cccc(-c2ccc(/C=C3\S/C(=N\c4ccccc4)N(c4ccc(Cl)cc4)C3=O)o2)c1	50 (≈ 25 µg/mL)
O=C(O)c1cccc(-c2ccc(/C=C3\S/C(=N\c4ccccc4)N(c4cccc(F)n4)C3=O)o2)c1	100 (≈ 48.5 µg/mL)
O=C(O)c1cccc(-c2ccc(/C=C3\S/C(=N\c4ccccc4)N(c4ccc(F)cn4)C3=O)o2)c1	> 200
O=C(O)c1cccc(-c2ccc(/C=C3\S/C(=N\c4ccccc4)N(c4ccc(F)cc4)C3=O)s2)c1	25 (≈ 12.5 µg/mL)
O=C(O)c1cccc(-c2ccc(/C=C3\S/C(=N\c4ccccc4)N(c4ccc(F)cn4)C3=O)s2)c1	50 (≈ 25.1 µg/mL)

test system: Escherichia coli; assay: Antibacterial activity against Escherichia coli ATCC 25922 by broth micro-dilution method; type: functional; conditions: not given

SMILES	MIC [µM]
CCc1ccccc1/N=C1\S/C(=C\c2ccc(OCC(=O)O)c(OC)c2)C(=O)N1c1ccccc1CC	> 200
O=C(O)c1cccc(-c2ccc(/C=C3\S/C(=N\c4ccc(F)cc4)N(c4ccc(F)cc4)C3=O)s2)c1	> 200
O=C(O)c1cccc(-c2ccc(/C=C3\S/C(=N\c4ccc(Cl)cc4)N(c4ccc(Cl)cc4)C3=O)s2)c1	> 200
O=C(O)c1cccc(-c2ccc(/C=C3\S/C(=N\c4ccc(Cl)cc4)N(c4ncccc4F)C3=O)o2)c1	> 200
O=C(O)c1cccc(-c2ccc(/C=C3\S/C(=N\c4ccc(Cl)cc4)N(c4ccccn4)C3=O)o2)c1	> 200
O=C(O)c1cccc(-c2ccc(/C=C3\S/C(=N\c4ccc(F)cc4)N(c4ccccn4)C3=O)o2)c1	> 200
O=C(O)c1cccc(-c2ccc(/C=C3\S/C(=N\c4ccccc4)N(c4ccc(Cl)cc4)C3=O)o2)c1	> 200
O=C(O)c1cccc(-c2ccc(/C=C3\S/C(=N\c4ccccc4)N(c4cccc(F)n4)C3=O)o2)c1	> 200
O=C(O)c1cccc(-c2ccc(/C=C3\S/C(=N\c4ccccc4)N(c4ccc(F)cn4)C3=O)o2)c1	> 200
O=C(O)c1cccc(-c2ccc(/C=C3\S/C(=N\c4ccccc4)N(c4ccc(F)cc4)C3=O)s2)c1	> 200
O=C(O)c1cccc(-c2ccc(/C=C3\S/C(=N\c4ccccc4)N(c4ccc(F)cn4)C3=O)s2)c1	> 200

test system: not listed separately; assay: Cytotoxicity against African green monkey Vero cells; type: cell-based; conditions: chlorocebus sabaeus

SMILES	CC50 [µM]
CCc1ccccc1/N=C1\S/C(=C\c2ccc(OCC(=O)O)c(OC)c2)C(=O)N1c1ccccc1CC	50
O=C(O)c1cccc(-c2ccc(/C=C3\S/C(=N\c4ccc(F)cc4)N(c4ccc(F)cc4)C3=O)s2)c1	> 200
O=C(O)c1cccc(-c2ccc(/C=C3\S/C(=N\c4ccc(Cl)cc4)N(c4ccc(Cl)cc4)C3=O)s2)c1	> 200
O=C(O)c1cccc(-c2ccc(/C=C3\S/C(=N\c4ccc(Cl)cc4)N(c4ncccc4F)C3=O)o2)c1	> 200
O=C(O)c1cccc(-c2ccc(/C=C3\S/C(=N\c4ccc(Cl)cc4)N(c4ccccn4)C3=O)o2)c1	> 200
O=C(O)c1cccc(-c2ccc(/C=C3\S/C(=N\c4ccc(F)cc4)N(c4ccccn4)C3=O)o2)c1	> 200
O=C(O)c1cccc(-c2ccc(/C=C3\S/C(=N\c4ccccc4)N(c4ccc(Cl)cc4)C3=O)o2)c1	> 200
O=C(O)c1cccc(-c2ccc(/C=C3\S/C(=N\c4ccccc4)N(c4cccc(F)n4)C3=O)o2)c1	> 200
O=C(O)c1cccc(-c2ccc(/C=C3\S/C(=N\c4ccccc4)N(c4ccc(F)cn4)C3=O)o2)c1	> 200
O=C(O)c1cccc(-c2ccc(/C=C3\S/C(=N\c4ccccc4)N(c4ccc(F)cc4)C3=O)s2)c1	> 200
O=C(O)c1cccc(-c2ccc(/C=C3\S/C(=N\c4ccccc4)N(c4ccc(F)cn4)C3=O)s2)c1	> 200

test system: not listed separately; assay: Hemolytic activity in human erythrocytes at 200 uM; type: ADME, cell-based; conditions: erythrocyte

SMILES	Activity
CCc1ccccc1/N=C1\S/C(=C\c2ccc(OCC(=O)O)c(OC)c2)C(=O)N1c1ccccc1CC	Non-toxic
O=C(O)c1cccc(-c2ccc(/C=C3\S/C(=N\c4ccc(F)cc4)N(c4ccc(F)cc4)C3=O)s2)c1	Non-toxic
O=C(O)c1cccc(-c2ccc(/C=C3\S/C(=N\c4ccc(Cl)cc4)N(c4ccc(Cl)cc4)C3=O)s2)c1	Non-toxic
O=C(O)c1cccc(-c2ccc(/C=C3\S/C(=N\c4ccc(Cl)cc4)N(c4ncccc4F)C3=O)o2)c1	Non-toxic
O=C(O)c1cccc(-c2ccc(/C=C3\S/C(=N\c4ccc(Cl)cc4)N(c4ccccn4)C3=O)o2)c1	Non-toxic
O=C(O)c1cccc(-c2ccc(/C=C3\S/C(=N\c4ccc(F)cc4)N(c4ccccn4)C3=O)o2)c1	Non-toxic
O=C(O)c1cccc(-c2ccc(/C=C3\S/C(=N\c4ccccc4)N(c4ccc(Cl)cc4)C3=O)o2)c1	Non-toxic
O=C(O)c1cccc(-c2ccc(/C=C3\S/C(=N\c4ccccc4)N(c4cccc(F)n4)C3=O)o2)c1	Non-toxic
O=C(O)c1cccc(-c2ccc(/C=C3\S/C(=N\c4ccccc4)N(c4ccc(F)cn4)C3=O)o2)c1	Non-toxic
O=C(O)c1cccc(-c2ccc(/C=C3\S/C(=N\c4ccccc4)N(c4ccc(F)cc4)C3=O)s2)c1	Non-toxic
O=C(O)c1cccc(-c2ccc(/C=C3\S/C(=N\c4ccccc4)N(c4ccc(F)cn4)C3=O)s2)c1	Non-toxic
